Test results reported in PMC11079024, “Identification of a family of species-selective complex I inhibitors as potential anthelmintics” (Nature Communications, 2024).
Several values for one entry are separate records, joined by “and”; a condition that tells them apart may be missing. Equal values may be shown once. Read-outs that look alike come from different tables or passages of the source.

Experiments:
[1] = molecular target: C. elegans (N2) complex I (NADH:ubiquinone oxidoreductase) (Caenorhabditis elegans, UniProt P24887+Q93873+Q94360); assay: biochemical; assay type: biochemical
Chain of C. elegans (N2) complex I (NADH:ubiquinone oxidoreductase) (Q94360 17-199): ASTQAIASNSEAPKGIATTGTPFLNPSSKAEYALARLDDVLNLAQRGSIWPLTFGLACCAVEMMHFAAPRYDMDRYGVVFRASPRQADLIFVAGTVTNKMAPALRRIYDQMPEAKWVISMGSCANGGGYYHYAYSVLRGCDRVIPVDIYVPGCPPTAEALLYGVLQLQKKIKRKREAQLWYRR
Chain of C. elegans (N2) complex I (NADH:ubiquinone oxidoreductase) (P24887 whole entry): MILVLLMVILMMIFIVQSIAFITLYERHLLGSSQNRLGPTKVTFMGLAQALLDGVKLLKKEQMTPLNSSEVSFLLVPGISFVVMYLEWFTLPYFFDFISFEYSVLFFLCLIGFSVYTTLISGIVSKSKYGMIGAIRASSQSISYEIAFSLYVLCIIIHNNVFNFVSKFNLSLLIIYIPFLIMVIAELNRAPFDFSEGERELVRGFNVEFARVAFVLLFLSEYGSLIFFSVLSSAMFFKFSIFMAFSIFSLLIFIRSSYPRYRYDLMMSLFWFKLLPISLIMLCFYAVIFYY
Chain of C. elegans (N2) complex I (NADH:ubiquinone oxidoreductase) (Q93873 31-482): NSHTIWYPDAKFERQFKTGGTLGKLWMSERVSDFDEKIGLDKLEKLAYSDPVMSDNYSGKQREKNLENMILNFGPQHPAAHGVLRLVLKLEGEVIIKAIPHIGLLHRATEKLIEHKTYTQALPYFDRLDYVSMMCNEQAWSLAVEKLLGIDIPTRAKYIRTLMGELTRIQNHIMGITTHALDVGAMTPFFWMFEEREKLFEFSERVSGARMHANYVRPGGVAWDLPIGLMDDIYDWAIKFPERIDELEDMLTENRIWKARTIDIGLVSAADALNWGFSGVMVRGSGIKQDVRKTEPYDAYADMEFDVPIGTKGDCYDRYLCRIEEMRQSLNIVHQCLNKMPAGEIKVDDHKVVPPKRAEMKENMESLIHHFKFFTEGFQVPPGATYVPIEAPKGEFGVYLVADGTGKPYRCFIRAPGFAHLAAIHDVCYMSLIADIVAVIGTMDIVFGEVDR
Summary of the method: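 Activity expressed as percent of solvent control. Complex I rate came from DCIP reduction at 600 nm (initial linear slope, 15 min) with NADH and decylubiquinone as substrates, plus antimycin A and KCN, in pH 7.5 KPi/BSA buffer. Isolated, thrice freeze-thawed mitochondria used at 0.2 mg/mL.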

L1 wild-type C. elegans = settings: […], mean of replicates

## COC(=O)Nc1nc2ccc(Sc3ccccc3)cc2[nH]1 [fenbendazole, reference compound]
[1]; 0.125 µM, wild-type C. elegans mitochondria, mean of replicates, read-out: percent (%) in vitro complex I activity relative to solvent control
  remaining activity at 0.125 µM: 103%
[1]; 0.125 µM, wild-type C. elegans mitochondria, single replicate
  percent (%) in vitro complex I activity relative to solvent control: 106.082% and 99.397%
[1]; 0.125 µM, wild-type C. elegans mitochondria, single replicate, read-out: percent (%) in vitro complex I activity relative to solvent control
  remaining activity at 0.125 µM: 102%
[1]; 0.313 µM, wild-type C. elegans mitochondria, mean of replicates, read-out: percent (%) in vitro complex I activity relative to solvent control
  remaining activity at 0.313 µM: 101%
[1]; 0.313 µM, wild-type C. elegans mitochondria, single replicate
  percent (%) in vitro complex I activity relative to solvent control: 105.067% and 102.773%
[1]; 0.313 µM, wild-type C. elegans mitochondria, single replicate, read-out: percent (%) in vitro complex I activity relative to solvent control
  remaining activity at 0.313 µM: 101%
[1]; 0.625 µM, wild-type C. elegans mitochondria, mean of replicates, read-out: percent (%) in vitro complex I activity relative to solvent control
  remaining activity at 0.625 µM: 101%
[1]; 0.625 µM, wild-type C. elegans mitochondria, single replicate
  percent (%) in vitro complex I activity relative to solvent control: 108.826% and 84.037% and 107.828% and 101.922%
[1]; 1.5 µM, wild-type C. elegans mitochondria, mean of replicates, read-out: percent (%) in vitro complex I activity relative to solvent control
  remaining activity at 1.5 µM: 101%
[1]; 1.5 µM, wild-type C. elegans mitochondria, single replicate
  percent (%) in vitro complex I activity relative to solvent control: 107.818% and 102.911% and 106.921% and 84.834%
[1]; 3 µM, wild-type C. elegans mitochondria, mean of replicates, read-out: percent (%) in vitro complex I activity relative to solvent control
  remaining activity at 3 µM: 108%
[1]; 3 µM, wild-type C. elegans mitochondria, single replicate
  percent (%) in vitro complex I activity relative to solvent control: 108.394% and 103.450%
[1]; 3 µM, wild-type C. elegans mitochondria, single replicate, read-out: percent (%) in vitro complex I activity relative to solvent control
  remaining activity at 3 µM: 111%
[1]; 15 µM, wild-type C. elegans mitochondria, mean of replicates, read-out: percent (%) in vitro complex I activity relative to solvent control
  remaining activity at 15 µM: 103%
[1]; 15 µM, wild-type C. elegans mitochondria, single replicate
  percent (%) in vitro complex I activity relative to solvent control: 105.414% and 100.145%
[1]; 15 µM, wild-type C. elegans mitochondria, single replicate, read-out: percent (%) in vitro complex I activity relative to solvent control
  remaining activity at 15 µM: 104%
[1]; 37.5 µM, wild-type C. elegans mitochondria, mean of replicates, read-out: percent (%) in vitro complex I activity relative to solvent control
  remaining activity at 37.5 µM: 106%
[1]; 37.5 µM, wild-type C. elegans mitochondria, single replicate
  percent (%) in vitro complex I activity relative to solvent control: 108.185% and 102.298%
[1]; 37.5 µM, wild-type C. elegans mitochondria, single replicate, read-out: percent (%) in vitro complex I activity relative to solvent control
  remaining activity at 37.5 µM: 112%
[1]; 75 µM, wild-type C. elegans mitochondria, mean of replicates, read-out: percent (%) in vitro complex I activity relative to solvent control
  remaining activity at 75 µM: 99.7%
[1]; 75 µM, wild-type C. elegans mitochondria, single replicate
  percent (%) in vitro complex I activity relative to solvent control: 105.576% and 98.309%
[1]; 75 µM, wild-type C. elegans mitochondria, single replicate, read-out: percent (%) in vitro complex I activity relative to solvent control
  remaining activity at 75 µM: 98.1%
[1]; dose 0.0001 µM, wild-type C. elegans, mean of replicates, read-out: in vitro complex I activity relative to solvent control, Mean
  remaining activity at 0.0001 µM: 92.7%
[1]; dose 0.0001 µM, wild-type C. elegans, single replicate
  in vitro complex I activity relative to solvent control, individual replicate: 89.632% and 90.262%
[1]; dose 0.0001 µM, wild-type C. elegans, single replicate, read-out: in vitro complex I activity relative to solvent control, individual replicate
  remaining activity at 0.0001 µM: 94.2%
[1]; dose 0.0005 µM, wild-type C. elegans, mean of replicates, read-out: in vitro complex I activity relative to solvent control, Mean
  remaining activity at 0.0005 µM: 102%
[1]; dose 0.0005 µM, wild-type C. elegans, single replicate
  in vitro complex I activity relative to solvent control, individual replicate: 109.063% and 93.803% and 100.567%
[1]; dose 0.0005 µM, wild-type C. elegans, single replicate, read-out: in vitro complex I activity relative to solvent control, individual replicate
  remaining activity at 0.0005 µM: 104%
[1]; dose 0.001 µM, wild-type C. elegans, mean of replicates, read-out: in vitro complex I activity relative to solvent control, Mean
  remaining activity at 0.001 µM: 107%
[1]; dose 0.001 µM, wild-type C. elegans, single replicate
  in vitro complex I activity relative to solvent control, individual replicate: 112.362% and 106.090% and 103.456%
[1]; dose 0.001 µM, wild-type C. elegans, single replicate, read-out: in vitro complex I activity relative to solvent control, individual replicate
  remaining activity at 0.001 µM: 107%
[1]; dose 0.0025 µM, wild-type C. elegans, mean of replicates, read-out: in vitro complex I activity relative to solvent control, Mean
  remaining activity at 0.0025 µM: 106%
[1]; dose 0.0025 µM, wild-type C. elegans, single replicate
  in vitro complex I activity relative to solvent control, individual replicate: 111.626% and 103.191% and 101.180%
[1]; dose 0.0025 µM, wild-type C. elegans, single replicate, read-out: in vitro complex I activity relative to solvent control, individual replicate
  remaining activity at 0.0025 µM: 107%
[1]; dose 0.005 µM, wild-type C. elegans, mean of replicates, read-out: in vitro complex I activity relative to solvent control, Mean
  remaining activity at 0.005 µM: 106%
[1]; dose 0.005 µM, wild-type C. elegans, single replicate
  in vitro complex I activity relative to solvent control, individual replicate: 110.787% and 104.169% and 105.146%
[1]; dose 0.005 µM, wild-type C. elegans, single replicate, read-out: in vitro complex I activity relative to solvent control, individual replicate
  remaining activity at 0.005 µM: 104%
[1]; dose 0.013 µM, wild-type C. elegans, mean of replicates, read-out: in vitro complex I activity relative to solvent control, Mean
  remaining activity at 0.013 µM: 105%
[1]; dose 0.013 µM, wild-type C. elegans, single replicate
  in vitro complex I activity relative to solvent control, individual replicate: 109.484% and 102.444% and 103.368%
[1]; dose 0.013 µM, wild-type C. elegans, single replicate, read-out: in vitro complex I activity relative to solvent control, individual replicate
  remaining activity at 0.013 µM: 105%
[1]; dose 0.025 µM, wild-type C. elegans, mean of replicates, read-out: in vitro complex I activity relative to solvent control, Mean
  remaining activity at 0.025 µM: 108%
[1]; dose 0.025 µM, wild-type C. elegans, single replicate
  in vitro complex I activity relative to solvent control, individual replicate: 112.068% and 112.677% and 102.223%
[1]; dose 0.025 µM, wild-type C. elegans, single replicate, read-out: in vitro complex I activity relative to solvent control, individual replicate
  remaining activity at 0.025 µM: 106%
[1]; dose 0.063 µM, wild-type C. elegans, mean of replicates, read-out: in vitro complex I activity relative to solvent control, Mean
  remaining activity at 0.063 µM: 102%
[1]; dose 0.063 µM, wild-type C. elegans, single replicate
  in vitro complex I activity relative to solvent control, individual replicate: 106.376% and 104.996% and 99.618%
[1]; dose 0.063 µM, wild-type C. elegans, single replicate, read-out: in vitro complex I activity relative to solvent control, individual replicate
  remaining activity at 0.063 µM: 98%
[1]; dose 0.125 µM, wild-type C. elegans, mean of replicates, read-out: in vitro complex I activity relative to solvent control, Mean
  remaining activity at 0.125 µM: 103%
[1]; dose 0.125 µM, wild-type C. elegans, single replicate
  in vitro complex I activity relative to solvent control, individual replicate: 106.082% and 99.397%
[1]; dose 0.125 µM, wild-type C. elegans, single replicate, read-out: in vitro complex I activity relative to solvent control, individual replicate
  remaining activity at 0.125 µM: 104%
[1]; dose 0.313 µM, wild-type C. elegans, mean of replicates, read-out: in vitro complex I activity relative to solvent control, Mean
  remaining activity at 0.313 µM: 101%
[1]; dose 0.313 µM, wild-type C. elegans, single replicate
  in vitro complex I activity relative to solvent control, individual replicate: 105.067% and 102.773%
[1]; dose 0.313 µM, wild-type C. elegans, single replicate, read-out: in vitro complex I activity relative to solvent control, individual replicate
  remaining activity at 0.313 µM: 96.6%
[1]; dose 0.625 µM, wild-type C. elegans, mean of replicates, read-out: in vitro complex I activity relative to solvent control, Mean
  remaining activity at 0.625 µM: 101%
[1]; dose 0.625 µM, wild-type C. elegans, single replicate
  in vitro complex I activity relative to solvent control, individual replicate: 84.037% and 107.828% and 101.922% and 108.826%
[1]; dose 1.5 µM, wild-type C. elegans, mean of replicates, read-out: in vitro complex I activity relative to solvent control, Mean
  remaining activity at 1.5 µM: 101%
[1]; dose 1.5 µM, wild-type C. elegans, single replicate
  in vitro complex I activity relative to solvent control, individual replicate: 102.911% and 106.921% and 84.834% and 107.818%
[1]; dose 3 µM, wild-type C. elegans, mean of replicates, read-out: in vitro complex I activity relative to solvent control, Mean
  remaining activity at 3 µM: 108%
[1]; dose 3 µM, wild-type C. elegans, single replicate
  in vitro complex I activity relative to solvent control, individual replicate: 108.394% and 103.450%
[1]; dose 3 µM, wild-type C. elegans, single replicate, read-out: in vitro complex I activity relative to solvent control, individual replicate
  remaining activity at 3 µM: 107%
[1]; dose 15 µM, wild-type C. elegans, mean of replicates, read-out: in vitro complex I activity relative to solvent control, Mean
  remaining activity at 15 µM: 103%
[1]; dose 15 µM, wild-type C. elegans, single replicate
  in vitro complex I activity relative to solvent control, individual replicate: 105.414% and 100.145%
[1]; dose 15 µM, wild-type C. elegans, single replicate, read-out: in vitro complex I activity relative to solvent control, individual replicate
  remaining activity at 15 µM: 101%
[1]; dose 37.5 µM, wild-type C. elegans, mean of replicates, read-out: in vitro complex I activity relative to solvent control, Mean
  remaining activity at 37.5 µM: 106%
[1]; dose 37.5 µM, wild-type C. elegans, single replicate
  in vitro complex I activity relative to solvent control, individual replicate: 108.185% and 102.298%
[1]; dose 37.5 µM, wild-type C. elegans, single replicate, read-out: in vitro complex I activity relative to solvent control, individual replicate
  remaining activity at 37.5 µM: 103%
[1]; dose 75 µM, wild-type C. elegans, mean of replicates, read-out: in vitro complex I activity relative to solvent control, Mean
  remaining activity at 75 µM: 99.7%
[1]; dose 75 µM, wild-type C. elegans, single replicate
  in vitro complex I activity relative to solvent control, individual replicate: 105.576% and 98.309%
[1]; dose 75 µM, wild-type C. elegans, single replicate, read-out: in vitro complex I activity relative to solvent control, individual replicate
  remaining activity at 75 µM: 96.8%
L1 wild-type C. elegans; dose 0.2 µM
  KCN survival assay value relative to DMSO control, Mean: 1.025
L1 wild-type C. elegans; dose 0.4 µM
  KCN survival assay value relative to DMSO control, Mean: 0.947
L1 wild-type C. elegans; dose 0.8 µM
  KCN survival assay value relative to DMSO control, Mean: 0.953
L1 wild-type C. elegans; dose 3.1 µM
  KCN survival assay value relative to DMSO control, Mean: 0.953
L1 wild-type C. elegans; dose 6.3 µM
  KCN survival assay value relative to DMSO control, Mean: 0.899
L1 wild-type C. elegans; dose 12.5 µM
  KCN survival assay value relative to DMSO control, Mean: 0.967
L1 wild-type C. elegans; dose 25 µM
  KCN survival assay value relative to DMSO control, Mean: 0.933
L1 wild-type C. elegans; dose 50 µM
  KCN survival assay value relative to DMSO control, Mean: 0.872
L1 wild-type C. elegans; dose 100 µM
  KCN survival assay value relative to DMSO control, Mean: 0.880
